In article PMC7609463 (Frontiers in Pharmacology, 2020):
“Also recorded” adds a separate entry of the source. Like-named read-outs stand apart in the source and are kept apart here.

Legend:
dengue virus = test system: dengue virus; set-up: method as in Constant et al., 2018; details: ref Constant et al., 2018; read-out: EC50 of inhibiting viral growth; cited from earlier work
viral proteinase NS2B/3 = target: viral proteinase NS2B/3; set-up: method as in Constant et al., 2018; details: ref Constant et al., 2018; read-out: IC50 of enzymatic activity of the viral proteinase; cited from earlier work
[1] = target: T1, ZIKV NS2B-NS3 protease (ZIKVpro) (Zika virus, UniProt A0A024B7W1); assay: fluorescence-based ZIKVpro protease inhibition screening assay (Bz-nKKR-AMC substrate); format: biochemical; details: for IC50: 150 nM ZIKVpro, 1 h preincubation at 37 °C, 50 μM Bz-nKKR-AMC; for inhibition at 20 µM: read-out: Inhibition Activity% (primary high-throughput screening)
T1 construct: The cDNA coding for residues 45–96 of ZIKV NS2B; the N terminus of NS3 (residues 1–177); poly-histidine tag (C); made in house; host or cells: E. coli BL21(DE3), pET28a (NcoI/XhoI)
T1 sequence (A0A024B7W1 1417-1468): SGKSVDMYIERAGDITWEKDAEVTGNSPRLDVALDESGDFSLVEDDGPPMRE
T1 sequence (A0A024B7W1 1503-1679): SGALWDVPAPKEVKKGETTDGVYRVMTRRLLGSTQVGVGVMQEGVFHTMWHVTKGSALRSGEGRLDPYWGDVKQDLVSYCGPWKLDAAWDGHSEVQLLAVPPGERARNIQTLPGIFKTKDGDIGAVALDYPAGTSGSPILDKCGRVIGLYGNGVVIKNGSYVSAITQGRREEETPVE
Protocol: For initial screening, each compound was dissolved in dimethyl sulfoxide (DMSO) to obtain 20 mM stock solution. […] The reaction was started by addition of Bz-nKKR-AMC substrate at 50 µM and fluorescence readings were measured at 30 s intervals over 10 min using Enspire (Perkin Elmer, USA) at excitation wavelength(λex) at 360 nm and emission wavelength(λem) at 460 nm. Assays were carried out as triplicates at 37 °C.
The protease activity of the DMSO control was set as 100%. The protease activities with compounds were set as percentage of the DMSO control. Data was fitted using the log(inhibitor) vs. response - variable slope (four parameters) model within the graphpad prism 7.0 software.
Inhibition activity=100-[S–S0/C−C0]×100%
S: the RFUs of the test sample (enzyme, inhibitor, buffer, and substrate) after 10 min of reaction
S0: the RFUs of the tested samples at time zero.
C: the RFUs of the control (enzyme, buffer, and substrate) after 10 min of reaction
C0: the RFUs of the control at time zero

ZIKVpro = details: 2017, read-out: IC50 against ZIKVpro, cited from earlier work
[2] = target: T2, ZIKV NS2B-NS3 protease (ZIKVpro, gZiPro) (Zika virus, UniProt A0A024B7W1); assay: Octet bio-layer interferometry binding assay with biotinylated ZIKVpro (gZiPro); details: for Response (Octet binding assay): compound 50 µM, biotinylated ZIKVpro, binding profile as nm shift; for binding to ZIKVpro in Octet assay: compound 50 μM
T2 construct: The cDNA coding for residues 45–96 of ZIKV NS2B; the N terminus of NS3 (residues 1–177); poly-histidine tag (C); made in house; host or cells: E. coli BL21(DE3), pET28a (NcoI/XhoI)
T2 sequence (A0A024B7W1 1417-1468): as the sequence (A0A024B7W1 1417-1468) above
T2 sequence (A0A024B7W1 1503-1679): as the sequence (A0A024B7W1 1503-1679) above
Source text: Intermolecular interactions between gZiPro and selected compounds were detected by using BLI technology on the ForteBio Octet Red system (Pall FortéBio, Inc, Menlo Park, USA). The biotinylated protein gZipro was immobilized onto super streptavidin biosensors (Pall FortéBio Inc.), and then blocked with biocytin (Sigma). […] Sensorgrams were double-referenced, corrected for solvent effects, and then fit using OctetRed user software (Pall FortéBio Inc.). The binding profile of each sample was summarized as an “nm shift” (the wavelength or spectral shift in nanometers), which represented the difference between the start and end of the kinetic cycle. Steady-state and kinetic responses were fit to a simple binding model to obtain values for association (Kon) and dissociation (Koff) rate constants and the equilibrium dissociation constant (Kd). The Langmuir’s 1:1 binding model was applied to fit the interferometry data.

ZIKV [3] = assay: protection of Vero E6 cell viability against ZIKV-induced cytopathic effect (CCK-8); format: cell-based, Zika virus; details: Vero E6 cells
Protocol: Cell viability was performed by Cell Counting Kit-8 (CCK-8) (Beyotime, China). Typically, 8×10^4 cells/ml Vero E6 cells were seeded in the wells of 96-well plate at 100 μl/well and grown for 24 h. The compound 1 μl was added to the cells, after which cells were infected with ZIKV at MOI of 0.05. Ribavirin and DMSO were used as positive and negative control, respectively. […] The absorbance at 450 nm was subsequently measured using EnSpire 2300 Multilable Reader (PerkinElmer). The inhibition rate of the tested compounds was calculated with the following equation:
Inhibition rate%=100-[ODtested compound−ODmock−infected cells/ODinfected cells−ODmock−infected cells]×100%

Vero E6 cells = assay: cytotoxicity in Vero E6 cells (CCK-8); format: cell-based, African green monkey; details: 0.3125~40 μM
ZIKV [4] = assay: qRT-PCR of viral RNA in ZIKV-infected Vero E6 cells; format: cell-based, Zika virus; details: dose-dependent
Protocol: To determine the viral RNA number by qRT-PCR, total intracellular RNAs were extracted from the infected cells (control and treated) by treatment with TRIzol reagent (Invitrogen, USA) according to the manufacturer’s protocol. The cDNA was synthesized using Primescript RT Master Kit (Takara, Japan). Level of viral RNA was determined by performing qRT-PCR analysis using SYBR premix Ex Taq II kit (Takara) according to the instructions. The primer sequences used for the Zika virus genes are 5’-[…]-3’ (forward) and 5’-[…]-3’ (reverse). For quantification, the 2^−ΔΔCt method was used to calculate the relative RNA levels against GAPDH.

ZIKV [5] = assay: western blot of ZIKV NS3 expression in infected Vero E6 cells; format: cell-based, Zika virus; details: dose-dependent
Protocol: (§1) Vero E6 cells were seeded at a density of 2×10^5 cells per well in 6-well plate. After overnight incubation, 2 µl DMSO (Sigma-Aldrich) or 2 µl chemical compounds were added to each well at the designated concentration. Then cells were infected with ZIKV at MOI of 0.05. Ribavirin and DMSO were used as positive and negative control, respectively. After a further incubation for 72 h at 37°C, cells were lysed with 100 μl of lysis buffer (50mM Tris, 150mM NaCl, 1% NP-40, 0.5% sodium deoxycholate, pH 7.4). Cell lysate was subjected to denaturing gel electrophoresis with 10% Bis-Tris Gel. The proteins were transferred onto PVDF membranes (Millipore, USA) and immunoblotted with indicated antibodies. The following antibodies were used for the detection of proteins: Anti-NS2B antibody (GTX133308, 1:1,000, GeneTex), Anti-NS3 antibody(GTX133320, 1:1,000, GeneTex), Anti-NS4A antibody (GTX133704, 1:1,000, GeneTex), Anti-prM antibody, Anti-β actin antibody (mAbcam 8224, 1:5000, Abcam) was used as a loading control. […]
(§2) Quantification of signals on Western blots was done using the Image pro 10 (Media cybernetics, USA) Imaging and Processing Analysis Software with signaling intensity normalized to loading control. […] Membranes were imaged and quantified in 800 nm channelsin the Odyssey Infrared Imaging System using Odyssey V3.0 software (LI-COR, Lincoln, NE).

ZIKV [6] = assay: western blot of viral protein in ZIKV-infected U-87 MG cells; format: cell-based, Zika virus; details: dose-dependent
ZIKV [7] = assay: time-of-drug-addition assay (qRT-PCR, Vero E6); format: cell-based, Zika virus; details: ZP10 25 μM or antibody 0.1 μg/ml, Vero E6, 24 hpi
Protocol: For the pre-treatment group, Vero E6 cells were seeded 12-well plates (2.5×10^5 cells/well). […] Next, Vero E6 cells were washed with PBS once before the addition of mixture. The 600 μl mixture was added into cells for 1 h at 4°C. […] Infected cells were collected at 24 hpi. The cell lysate was collected for viral RNA copies measurement using qRT-PCR. DMSO was included as negative control. The experiments were performed in triplicate and repeated twice for confirmation.

[8] = test system: ZIKV polyprotein precursor cleavage by ZIKVpro; assay: western blot of viral polyprotein precursor processing in ZIKV-infected Vero E6 cells; format: cell-based, Zika virus; details: especially at 6.25 µM
Protocol: as §1, §2

[9] = test system: CCCC[C@H](NC(=O)c1ccccc1)C(=O)N[C@@H](CCCCN)C(=O)N[C@@H](CCCCN)C(=O)N[C@@H](CCCNC(=N)N)C(=O)Nc1ccc2c(C)cc(=O)oc2c1; assay: purified protein, by the assay type; details: other: substrate 5 to 320 µM, 150 nM protease, 37 °C, pH 7.5
Protocol: Proteolytic activity of NS2B-NS3 protease was measured using benzoyl-norleucine-lysine-lysine-arginine 7-amino-4-methylcoumarine (Bz-nKKR-AMC). Bz-nKKR-AMC substrate with starting concentration of 300 μM was serially diluted two times in reaction buffer (50 mM Tris-HCl, pH 7.5, 150 mM NaCl) and added to 96-well black plate (Costar, USA) with 150 nM protein diluted in the same buffer. For kinetics measurements, fluorescence readings were measured at 30 s interval for 5 min using Enspire (Perkin Elmer) at excitation wavelength (λex) at 360 nm and emission wavelength (λem) at 460 nm. Assays were carried out as triplicates at 37 °C. Michaelis-Menten constant (Km) was calculated by graphpad prism5.0.

**Q.** For `O=C1c2c(O)ccc([N+](=O)[O-])c2C(=O)c2c([N+](=O)[O-])ccc(O)c21` [ARDP006], which EC50 (dengue virus) is on record?
**A.** The EC50 was 4.2 µM.

**Q.** And the IC50 (viral proteinase NS2B/3)?
**A.** The IC50 was 432 µM.

**Q.** With `O=c1c(O)c(-c2cc(O)c(O)c(O)c2)oc2cc(O)cc(O)c12` [Myricetin, myricetin] as the compound, how does the IC50 [1] read?
**A.** Its IC50 is 48.7 µM.

**Q.** What about the IC50 (ZIKVpro; ref Lim et al.) of the same compound?
**A.** Its IC50 is 22 µM.

**Q.** What about the IC50 (ZIKVpro; ref Roy et al.) of the same compound?
**A.** Its IC50 is 1.3 µM.

**Q.** Which results are given for `CCCCCCCCCCCCCc1cccc(O)c1C(=O)O` [ZP9]?
**A.** IC50 [1]: 1.42 µM; inhibition at 20 µM [1]: 82.2%; Response (Octet binding assay) [2]: -0.0005

**Q.** With `O=C(OC1Cc2c(O)cc(O)cc2OC1c1cc(O)c(=O)c2c(O)c(O)cc(C3Oc4cc(O)cc(O)c4CC3OC(=O)c3cc(O)c(O)c(O)c3)c2c1)c1cc(O)c(O)c(O)c1` (stereo not shown) [ZP10, theaflavin-3,3’-digallate] as the compound, how does the “ZIKV-induced CPE (cell morphology)” value (ZIKV [3]; 72 hpi, ZP10 6.25 µM to 25.0 µM) read?
**A.** The value was “attenuated to a large extent”.

**Q.** What about the EC50 (ZIKV [3]; Zika virus, Vero C1008, MOI 0.05, CCK-8 read-out, read-out: EC50 of inhibition of ZIKV replication (CPE protection)) of the same compound?
**A.** The EC50 was 7.65 µM.

**Q.** What about the “cytotoxicity (cell viability, CCK-8)” value (Vero E6 cells) of the same compound?
**A.** The value was “minor cytotoxicity up to 40 μM; also recorded: low cytotoxicity”.

**Q.** And the “viral RNA copy numbers” value (ZIKV [4])?
**A.** The value was “markedly reduced”.

**Q.** What about the NS3 protein expression (ZIKV [5]) of the same compound?
**A.** Its NS3 protein expression is “markedly reduced”.

**Q.** And the “viral protein expression (NS3 and envelope)” value (ZIKV [6])?
**A.** Its value is “considerably reduces”.

**Q.** And the “effect on ZIKV entry / replication when added before or after virus adsorption (0–1 hpi)” value (ZIKV [7])?
**A.** The value was “no effect of ZP10 on ZIKV entry”.

**Q.** What about the “cleavage processing of polyprotein precursor (PP)” value [8] of the same compound?
**A.** Its value is “impaired cleavage processing of PP”.

**Q.** For `O=c1cc(-c2ccc(O)cc2)oc2cc(O)cc(O)c12` [Apigenin], which IC50 (ZIKVpro; ref Roy et al.) is on record?
**A.** Its IC50 is 56.3 µM.

**Q.** For “ZIKV NS2B-NS3 protease (ZIKVpro) (Zika virus ZIKV/H. sapiens/FrenchPolynesia/10087PF/2013)”, which Km [9] is on record?
**A.** The Km was 30.51 µM.

**Q.** Which “binding to ZIKVpro in Octet assay” value [2] does the source give for `O=C(OC[C@H]1O[C@@H](OC(=O)c2cc(O)c(O)c(OC(=O)c3cc(O)c(O)c(O)c3)c2)[C@H](OC(=O)c2cc(O)c(O)c(OC(=O)c3cc(O)c(O)c(O)c3)c2)[C@@H](OC(=O)c2cc(O)c(O)c(OC(=O)c3cc(O)c(O)c(O)c3)c2)[C@@H]1OC(=O)c1cc(O)c(O)c(OC(=O)c2cc(O)c(O)c(O)c2)c1)c1cc(O)c(O)c(OC(=O)c2cc(O)c(O)c(O)c2)c1` [ZP3, tannic acid] here?
**A.** Its value is “direct binding”.

**Q.** What about the “Response (Octet binding assay)” value [2] of the same compound?
**A.** Its value is 0.1091.

**Q.** With merbromin [ZP1] as the compound, how does the IC50 [1] read?
**A.** The IC50 was 9.18 µM.

**Q.** And the “binding to ZIKVpro in Octet assay” value [2]?
**A.** The value was “direct binding”.

**Q.** What about the “Response (Octet binding assay)” value [2] of the same compound?
**A.** The value was 1.0863.

**Q.** Which inhibition at 20 µM [1] does the source give for `Cc1cc2c(C(C)C)c(O)c(O)c(C=O)c2c(O)c1-c1c(C)cc2c(C(C)C)c(O)c(O)c(C=O)c2c1O` [ZP4] here?
**A.** Its inhibition at 20 µM is 59.7%.

**Q.** And the “Response (Octet binding assay)” value [2]?
**A.** Its value is -0.046.
